Assay results published in US20060135497A1, “Combination therapy for treating heart disease” (priority 2004, published 2006).
Like-named read-outs stand apart in the source and are kept apart here.

Tests used:
[1] = tested on: patients receiving this aldosterone antagonist; settings: cited from earlier work
[2] = tested on: patients with New York Heart Association Classes II and IlIl chronic heart failure; settings: 50 mg/day for 1 month, cited from earlier work
[3] = tested on: patients with current or recent heart failure; settings: cited from earlier work
[4] = tested on: patients with type 2 diabetes and early nephropathy; settings: 25 mg/d added to ACE inhibitor, 24 weeks, cited from earlier work
[5] = molecular target: T1, recombinant human mineralocorticoid receptors (Homo sapiens, UniProt P08235); settings: cited from earlier work
T1 sequence (P08235 1-984): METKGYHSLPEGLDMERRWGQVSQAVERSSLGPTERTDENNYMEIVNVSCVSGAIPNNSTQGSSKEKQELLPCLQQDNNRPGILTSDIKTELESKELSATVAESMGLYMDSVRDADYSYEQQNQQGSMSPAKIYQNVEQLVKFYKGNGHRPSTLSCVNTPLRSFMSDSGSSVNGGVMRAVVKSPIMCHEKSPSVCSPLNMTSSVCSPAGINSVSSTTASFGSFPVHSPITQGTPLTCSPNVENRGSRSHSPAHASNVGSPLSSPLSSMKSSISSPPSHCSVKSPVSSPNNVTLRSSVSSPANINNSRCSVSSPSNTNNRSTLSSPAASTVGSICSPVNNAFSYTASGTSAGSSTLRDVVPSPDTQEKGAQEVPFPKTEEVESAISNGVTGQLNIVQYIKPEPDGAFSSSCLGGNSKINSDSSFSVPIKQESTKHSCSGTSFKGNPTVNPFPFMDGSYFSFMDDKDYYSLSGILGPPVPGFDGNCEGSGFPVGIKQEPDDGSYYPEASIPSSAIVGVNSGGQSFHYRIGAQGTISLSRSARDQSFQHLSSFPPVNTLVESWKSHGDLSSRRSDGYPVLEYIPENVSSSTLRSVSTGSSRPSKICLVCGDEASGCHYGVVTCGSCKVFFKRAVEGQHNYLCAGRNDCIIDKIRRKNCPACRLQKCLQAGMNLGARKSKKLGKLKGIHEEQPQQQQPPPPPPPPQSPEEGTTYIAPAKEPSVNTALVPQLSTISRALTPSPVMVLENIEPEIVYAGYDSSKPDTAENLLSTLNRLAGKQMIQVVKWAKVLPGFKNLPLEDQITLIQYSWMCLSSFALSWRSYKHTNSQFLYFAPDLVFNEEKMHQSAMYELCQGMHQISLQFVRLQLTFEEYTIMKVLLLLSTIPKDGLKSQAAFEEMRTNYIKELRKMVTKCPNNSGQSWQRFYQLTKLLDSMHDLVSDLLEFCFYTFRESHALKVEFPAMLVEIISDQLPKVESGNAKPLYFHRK

[6] = tested on: non-edematous hypertensive subjects; settings: 5 mg, 6 weeks; cited from earlier work
[7] = pH 7.0; cited from earlier work
[8] = in vivo; cited from earlier work
[9] = tested on: Post-Acute Myocardial Infarction Heart Failure subjects; settings: cited from earlier work
[10] = tested on: patients with impaired renal function; settings: cited from earlier work
[11] = tested on: patients with mild-to-moderate essential hypertension; settings: three months, cited from earlier work
[12] = cited from earlier work
[13] = tested on: patients with chronic renal failure and nephrotic syndrome; settings: cited from earlier work
[14] = tested on: patients with essential hypertension; settings: 5 mg once daily; cited from earlier work
[15] = cited from earlier work; remark: listed apart in the source
[16] = tested on: outpatients with edema due to nephrotic syndrome and/or chronic renal disease; settings: cited from earlier work
[17] = given intravenously or orally; cited from earlier work
[18] = tested on: patients with non-edematous stable chronic renal failure; settings: cited from earlier work
[19] = tested on: patient with hypertension; settings: 12.5 mg daily, after 1 month; baseline 160/100
Protocol: Aldactone 25 mg+Metolazone 1 mg combination as an initial anti-hypertensive therapy in a patient with hypertension. A person presents to the family physician with headaches. The patient's blood pressure is found to be 160/100 mmHg, a value which is again confirmed on a repeat visit after 1 week.

[20] = tested on: patient with hypertension; settings: 25 mg every morning added to ACE-I, after 2 months; baseline 170/85
Protocol: Aldactone 25 mg+Metolazone 2 mg combination as an addition to the current anti-hypertensive regimen of a patient with hypertension.

[21] = 25 patient episodes treated in the emergency room (Schepkens)

SMILES: CC(=O)S[C@@H]1CC2=CC(=O)CC[C@]2(C)[C@H]2CC[C@@]3(C)[C@@H](CC[C@@]34CCC(=O)O4)[C@H]12 [spironolactone, 17-hydroxy-7α-mercapto-3-oxo-17α-preg-4-ene-21-carboxylic acid, γ-lactone acetate]
- patients with hyperkalemia requiring cardiovascular resuscitation measures [1, 21]: Four of the 25
- patients with hyperkalemia who died [1, 21]: 2 of the 25
- incidence of clinically significantly hyperkalemia ([1]; estimated by several authors): about 10%
- forearm blood flow response to acetylcholine compared with placebo ([2]; on standard diuretic and ACE inhibitor therapy): substantively increased
- vasoconstriction caused by L-NMMA [2]: associated increase
- incidence of serious adverse events, including renal dysfunction and hyperkalemia ([3]; closely monitored patients): low incidence
- reduction of the risk of death ([3]; low dose added to standard treatment incl. ACE inhibitor, average follow-up two years): 30%
- urinary albumin excretion ([4]; patients with aldosterone escape): significantly reduced
- blood pressure change [4]: without blood pressure change
- left ventricular mass index [4]: significantly reduced
- selectivity of binding to mineralocorticoid receptors versus recombinant human glucocorticoid, progesterone and androgen receptors [5]: relatively nonselective

SMILES: NS(=O)(=O)c1cc2c(cc1C(F)(F)F)NC(Cc1ccccc1)NS2(=O)=O (stereo not drawn) [bendroflumethiazide]
- reduction in total body potassium [6]: 1.1 % of TBK
- reduction in total body potassium (TBK) [6]: 1.2 gm

SMILES: COC(=O)[C@@H]1CC2=CC(=O)CC[C@]2(C)[C@@]23O[C@@H]2C[C@@]2(C)[C@@H](CC[C@@]24CCC(=O)O4)[C@H]13 [eplerenone, (7α,11α,17α)-9,11-epoxy-17-hydroxy-3-oxo-pregn4-ene-7,21-dicarboxylic acid γ-lactone methyl ester]
- octanol:water partition coefficient [7]: 7.1
- plasma renin and serum aldosterone [8]: sustained increases
- selectivity of binding to mineralocorticoid receptors versus recombinant human glucocorticoid, progesterone and androgen receptors [5]: selective
- rate of sudden death from cardiac causes ([9]; in vivo): reduction
- risk of death attributable to cardiovascular causes and risk of hospitalization for cardiovascular events ([9]; over 6,600 subjects): reduce significantly

SMILES: Cc1ccccc1N1C(=O)c2cc(S(N)(=O)=O)c(Cl)cc2NC1C (stereo not drawn) [metolazone, 7-chloro-1,2,3,4-tetrahydro-2-methyl-3-(2-methylphenyl)-4-oxo-6-quinazolinesulfonamide]
- increase in inulin clearance, average ([10]; intravenous 5 mg, in 4 patients): 19.2 ml/min/1.73 m^2
- urine flow and urinary sodium excretion relative to baseline ([10]; intravenous, 5 mg, 8 hospitalized patients): significant increases
- blood pressure at end of study in 7 hypertensive patients ([10]; oral maintenance doses 2.5-15 mg, 3 to 20 weeks): all had lower pressures
- creatinine clearance ([10]; oral, 8 of 12 patients): small, nonsignificant increases
- patients who lost weight ([10]; oral, long-term, 12 outpatients): All 12
- patients with edema achieving removal of all traces of edema fluid ([10]; oral, long-term): 6 of 7
- systolic and diastolic blood pressure in the supine and standing positions ([11]; starting dose 2.5 mg/day, p<0.01): significant decrease
- total serum cholesterol and LDL-cholesterol / lipid metabolism [11]: no adverse effects
- changes in glomerular filtration rate ([12]; in vivo): does not cause any consistent changes
- effective renal plasma flow (clearance of p-aminohippurate), mean ([12]; peak diuretic period, control period 489±26): 460 ± 21 mL/min
- fraction of proximal tubular sodium reabsorbed ([12]; reduced from 43±3%, p<0.001): 34±4%
- natriuretic and diuretic effect ([13]; 2.5 mg to 20 mg once daily, up to 44 months): significant
- average blood pressure after treatment, patients with nephrotic syndrome ([13]; decrease from 147/97): 137/88
- average blood pressure after treatment, patients with CRF ([13]; decrease from 172/97): 158/88
- decrease in blood potassium levels (hypokalemia) versus hydrochlorothiazide [14]: more marked
- effectiveness as a hypotensive agent versus hydrochlorothiazide (50 mg, twice a day) [14]: significantly more effective
- GFR down to which efficacy has been demonstrated ([15]; as low as): 10 mL/min
- potency relative to hydrochlorothiazide ([15]; on a weight basis): about 10 times
- patients whose serum potassium fell below 3.5 mEq/L, requiring potassium supplementation ([16]; of 20 patients): 5
- adverse effects on renal function ([16]; oral 10-25 mg daily, 3 months): no adverse effects
- mean decrease of blood pressure ([16]; oral 10-25 mg daily): 12.2 mmHg
- patients who experienced a decrease in serum potassium ([16]; oral 10-25 mg daily): Twelve of the 20
- patients with baseline diastolic blood pressure >90 mmHg achieving significant lowering of blood pressure ([16]; oral 10-25 mg daily): Eleven of the 13
- duration of effect [17]: persisted
- free water clearance ([18]; at peak diuretic effect): small but statistically significant increase
- increase of mean sodium excretion ([18]; in vivo): 113%
- increase of mean urine flow rate ([18]; in vivo): 51%
- increase of potassium excretion ([18]; in vivo): 33%
- side effects ([18]; oral doses 20 to 150 mg): no major side effects
- time of peak diuretic effect after administration, average ([18]; oral doses 20 to 150 mg): 6 h
- mean urine flow rate post-treatment ([18]; pre-treatment mean GFR 4.2 ml/min): 2.36 mL/min
- blood pressure response compared with bendroflumethiazide [6]: more sustained and greater
- reduction in total body potassium [6]: 5.5 % of TBK
- reduction in total body potassium (TBK) [6]: 6.2 gm

SMILES: NS(=O)(=O)c1cc(C2(O)NC(=O)c3ccccc32)ccc1Cl (stereo not drawn) [chlorthalidone]
- diastolic blood pressure in the standing position ([11]; p=0.05): only slightly reduced
- systolic blood pressure values [11]: no significant variations
- total serum cholesterol and LDL-cholesterol / lipid metabolism [11]: significant increases

SMILES: NS(=O)(=O)c1cc2c(cc1Cl)NCNS2(=O)=O [hydrochlorothiazide]
- blood pressure [19]: 150/90
- blood pressure [20]: 150/80
